A word on the IC50: it is the point on the concentration scale where inhibition reaches its midpoint.

Drawing on patent US20240109915A1, “NOVEL ACC INHIBITORS” (Pfizer Inc., priority 2022, published 2024), this text covers metabolite profile and IC50 for three molecules.

Data set [1] in a line: Metabolite profile in liver microsomes, hepatocytes, recombinant human P450 and UGT enzymes, and animal plasma. As to conditions: recombinant human cytochrome P450 and UGT enzymes, plasma from animals. The format is in vitro ADME, mouse, rat, rabbit, dog, monkey. How it is done:
The metabolite profile of compound of Example 14 was evaluated in liver microsomes and hepatocytes (mouse, rat, rabbit, dog, monkey, and human), recombinant human cytochrome P450 enzymes, recombinant human UGT enzymes, and plasma from animals (mouse, rat, and dog).
For orientation: Microsomes from liver hold many membrane-bound enzymes, among them those of drug oxidation.

Data set [2] addresses recombinant human ACC1 (rhACC1) (Homo sapiens (Human), UniProt Q13085). In words: Transcreener ADP detection FP assay, direct inhibition of rhACC1. The data set is classed as biochemical. The conditions noted are these: Geomean IC50, n ≥ 2 unless * then n = 1; 50 μM ATP, 30 μM acetyl-CoA.
A further data set deals with SZ95 sebocytes. In words: Radiometric measurement of de novo lipogenesis in cultured human sebocytes. The data set is classed as cell-based. The conditions noted are these: Geomean IC50, n>2 unless * then n=1, 14C acetate incorporation into lipids (DNL). The protocol: SZ95 sebocytes were grown in Human Sebocyte Growth Medium (HSGM) containing Sebomed® basal medium (Sigma-Aldrich, F8205) supplemented with 10% heat-inactivated fetal bovine serum (Gibco, 10100-147), 1% penicillin/streptomycin (Gibco, 15070-063), 1 mM calcium chloride (Fisher, BP9742-10X5) and 5 ng/mL recombinant human epidermal growth factor (Gibco, PHG0311). At 90% confluence, cells were washed with PBS and then detached with 0.05% Trypsin-EDTA (Gibco, 25300054). Prior to starting the assay, cells were centrifuged and resuspended in HSGM containing 5% charcoal-stripped serum (Life Technologies, 12676-029) instead of 10% heat-inactivated fetal bovine serum. Cells were added to 24-well plates at a density of 0.25×10^6 cells/well and incubated overnight at 37° C. to allow the cells to adhere to the culture plate. Cells were then treated with a dose response of compound (30, 1, 0.03, 0.006, 0.0009, 0.0002, and 0.00003 μM) with each concentration tested in duplicate. Briefly, compounds were dissolved in DMSO stocks and diluted 1:1000 into HSGM with charcoal-stripped media. The vehicle control wells were treated with 0.1% DMSO. After a 1-hour preincubation with compound or vehicle at 37° C., 0.25 μCi ^14C sodium acetate (American Radiolabeled Chemicals: ARC, 0173A) was added to each well. Plates were incubated for an additional two hours at 37° C. At the end of the incubation period, cells were removed from incubator, placed on ice, and then washed twice with ice-cold PBS to remove free ^14C-sodium acetate. Plates were sealed and stored at −20° C. until analysis. To induce lysis, 125 μL of mammalian protein extraction reagent (MPER; Fisher, 78501) was added to each well. Plates were shaken for 1 hour at room temperature and lysates transferred to individual 2 mL polypropylene tubes. Wells were then washed with 175 μL PBS, which was added to lysates. A chloroform:methanol solution (1:1 v/v, 450 μL) was added to each tube. All tubes were vortexed for 10 seconds and centrifuged at 14,000×g for 5 minutes at room temperature to separate the aqueous and organic phases. A 25 μL aliquot was removed from the bottom organic layer of each sample and added to 6 mL Optiphase Supermix scintillation fluid (PerkinElmer, 1200-439). Counts of ^14C were assessed by scintillation counting. DNL (counts of ^14C incorporated into lipids) was expressed as a percentage for compound treated cells relative to the vehicle control. IC50 values were determined using a non-linear regression (four parameter with variable slope) in GraphPad Prism.

Consider `CCOc1cc(C(=O)N2CCC3(CC2)CC(=O)c2nc(C(C)(C)C)sc2C3)cc2c(C)nn(C)c12` [Example 14, 2-(tert-butyl)-1′-(7-ethoxy-1,3-dimethyl-1H-indazole-5-carbonyl)-5H-spiro[benzo[d]thiazole-6,4′-piperidin]-4(7H)-one], for which the metabolite profile result in data set [1] is “oxidation and glucuronidation”. Further, the results for the IC50 (in data set [2]; in the data set on SZ95 sebocytes) were 2.2 nM and 5.9 nM, respectively.
As for `CNc1nc2c(C)cccc2cc1C(=O)N1CCC2(CC1)CC(=O)c1nc(C(C)(C)C)sc1C2` [Example 97], the IC50 in data set [2] was 1.8 nM; in the data set with SZ95 sebocytes, 16.2 nM.
For `COc1cc(C(=O)N2CCC3(CC2)CC(=O)c2nc(C(C)(C)C)sc2C3)cc2c(C3CC3)nccc12` [Example 99], in that order: 3.9 nM and 10 nM.
